Measured values: patent publication US20150197492A1, “NOVEL INDENO[1,2-c]QUINOLIN-11-ONE DERIVATIVES, PREPARATION METHOD AND APPLICATION THEREOF” (National Defense Medical Center, priority 2014, published 2015)

What was measured:
Format in all cases: cell-based
human PC-3 cells = experiment: Sulforhodamine B (SRB) assay, cytotoxicity against PC-3 cells; conditions: SRB assay, PC-3 cells
How it was run: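 PC-3 cells in 5% FBS were fixed with 10% TCA after 24 h as T0, then treated with compound for 48 h, fixed, stained with 0.4% SRB in 1% acetic acid and solubilized in 10 mmol/L Trizma base. Absorbance was read at 515 nm. GI% = 100−[(Tx−T0)/(C−T0)]×100, and IC50 is the concentration halving total protein.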

[1] = tested on: 55 to 60 cancer cell lines; conditions: 10 μM, 48 hours, all tested cell lines
CCRF-CEM = experiment: cells; conditions: CCRF-CEM (Leukemia), 10 μM, 48 hours
HL-60 (TB) = experiment: cells; conditions: HL-60 (TB) (Leukemia), 10 μM, 48 hours
K-562 = experiment: cells; conditions: K-562 (Leukemia), 10 μM, 48 hours
SR = experiment: cells; conditions: SR (Leukemia), 10 μM, 48 hours
HOP-62 = experiment: cells; conditions: HOP-62 (Non-Small Cell Lung Cancer), 10 μM, 48 hours
NCI-H226 = experiment: cells; conditions: NCI-H226 (Non-Small Cell Lung Cancer), 10 μM, 48 hours
NCI-H23 = experiment: cells; conditions: NCI-H23 (Non-Small Cell Lung Cancer), 10 μM, 48 hours
NCI-H460 = experiment: cells; conditions: NCI-H460 (Non-Small Cell Lung Cancer), 10 μM, 48 hours
COLO 205 = experiment: cells; conditions: COLO 205 (Colon Cancer), 10 μM, 48 hours
HCT-116 = experiment: cells; conditions: HCT-116 (Colon Cancer), 10 μM, 48 hours
HT29 = experiment: cells; conditions: HT29 (Colon Cancer), 10 μM, 48 hours
KM12 = experiment: cells; conditions: KM12 (Colon Cancer), 10 μM, 48 hours
SW-620 = experiment: cells; conditions: SW-620 (Colon Cancer), 10 μM, 48 hours
SF-295 = experiment: cells; conditions: SF-295 (CNS Cancer), 10 μM, 48 hours
SF-539 = experiment: cells; conditions: SF-539 (CNS Cancer), 10 μM, 48 hours
U251 = experiment: cells; conditions: U251 (CNS Cancer), 10 μM, 48 hours
SK-MEL-28 = experiment: cells; conditions: SK-MEL-28 (Melanoma), 10 μM, 48 hours
SK-MEL-5 = experiment: cells; conditions: SK-MEL-5 (Melanoma), 10 μM, 48 hours
IGROV1 = experiment: cells; conditions: IGROV1 (Ovarian Cancer), 10 μM, 48 hours
NCI/ADR-RES = experiment: cells; conditions: NCI/ADR-RES (Ovarian Cancer), 10 μM, 48 hours
786-0 = experiment: cells; conditions: 786-0 (Renal Cancer), 10 μM, 48 hours
A498 = experiment: cells; conditions: A498 (Renal Cancer), 10 μM, 48 hours
RXF 393 = experiment: cells; conditions: RXF 393 (Renal Cancer), 10 μM, 48 hours
SN12C = experiment: cells; conditions: SN12C (Renal Cancer), 10 μM, 48 hours
DU-145 = experiment: cells; conditions: DU-145 (Prostate Cancer), 10 μM, 48 hours
HS 578T = experiment: cells; conditions: HS 578T (Breast Cancer), 10 μM, 48 hours
BT-549 = experiment: cells; conditions: BT-549 (Breast Cancer), 10 μM, 48 hours
T-47D = experiment: cells; conditions: T-47D (Breast Cancer), 10 μM, 48 hours

Compound	Toxicity (%) (human PC-3 cells)	GI % (10 μM) (human PC-3 cells)	Mean (mean growth percentage of the tested cancer cell lines) [1]	growth percentage (CCRF-CEM)	growth percentage (HL-60 (TB))	growth percentage (K-562)	growth percentage (SR)	growth percentage (HOP-62)	growth percentage (NCI-H226)	growth percentage (NCI-H23)	growth percentage (NCI-H460)	growth percentage (COLO 205)	growth percentage (HCT-116)	growth percentage (HT29)	growth percentage (KM12)	growth percentage (SW-620)	growth percentage (SF-295)	growth percentage (SF-539)	growth percentage (U251)	growth percentage (SK-MEL-28)	further results
CN1CCN(c2nc3ccccc3c3c2-c2ccc(Cl)cc2C3=O)CC1 [SJ-12, 9-Chloro-6-(4-methylpiperazin-1-yl)-11H-indeno[1,2-c]quinolin-11-one]	0%	39.4%	88.15%	92.44%	101.15%	92.13%	75.13%	61.42%	86.17%	86.27%	91.83%	93.65%	92.78%	93.76%	99.06%	92.76%	90.01%	95.23%	85.86%	110.81%	growth percentage (SK-MEL-5): 97.67%; growth percentage (IGROV1): 75.03%; growth percentage (NCI/ADR-RES): 88.19%; growth percentage (786-0): 89.51%; growth percentage (A498): 72.81%; growth percentage (RXF 393): 94.00%; growth percentage (SN12C): 83.57%; growth percentage (DU-145): 102.37%; growth percentage (HS 578T): 70.47%; growth percentage (BT-549): 82.89%; growth percentage (T-47D): 76.27%
O=C1c2cc(Cl)ccc2-c2c(N3CCN(C(=O)N4CCCCC4)CC3)nc3ccccc3c21 [SJ-23]	43%	100%	100.53%	109.87%	109.78%	95.70%	105.15%	96.39%	96.06%	95.41%	98.85%	98.52%	101.67%	108.65%	101.58%	92.51%	97.83%	92.98%	98.15%	107.03%	growth percentage (SK-MEL-5): 92.50%; growth percentage (IGROV1): 81.63%; growth percentage (NCI/ADR-RES): 107.13%; growth percentage (786-0): 105.05%; growth percentage (A498): 104.44%; growth percentage (RXF 393): 107.22%; growth percentage (SN12C): 101.12%; growth percentage (DU-145): 114.04%; growth percentage (HS 578T): 102.06%; growth percentage (BT-549): 105.34%; growth percentage (T-47D): 95.99%
